Laboratory results reported in patent EP0583821A1, “Atriopeptins, guanylate cyclase activators, and phosphodiesterase inhibitors as treatment for glaucoma, hydrocephalus and cerebral edema (cranial fluid volume dysfunction)” (THE GENERAL HOSPITAL CORPORATION, priority 1987, dated 1988).

Experiments:
[1] = target: T1, guanylate cyclase (Oryctolagus cuniculus, UniProt G1TXB5); assay: Guanylate cyclase in membranes of ventral superior sagittal dural sinus (arachnoid villi); type: biochemical, pig or rabbit; conditions: small stimulation only at high concentrations; 4 min
T1 sequence (G1TXB5 28-1056): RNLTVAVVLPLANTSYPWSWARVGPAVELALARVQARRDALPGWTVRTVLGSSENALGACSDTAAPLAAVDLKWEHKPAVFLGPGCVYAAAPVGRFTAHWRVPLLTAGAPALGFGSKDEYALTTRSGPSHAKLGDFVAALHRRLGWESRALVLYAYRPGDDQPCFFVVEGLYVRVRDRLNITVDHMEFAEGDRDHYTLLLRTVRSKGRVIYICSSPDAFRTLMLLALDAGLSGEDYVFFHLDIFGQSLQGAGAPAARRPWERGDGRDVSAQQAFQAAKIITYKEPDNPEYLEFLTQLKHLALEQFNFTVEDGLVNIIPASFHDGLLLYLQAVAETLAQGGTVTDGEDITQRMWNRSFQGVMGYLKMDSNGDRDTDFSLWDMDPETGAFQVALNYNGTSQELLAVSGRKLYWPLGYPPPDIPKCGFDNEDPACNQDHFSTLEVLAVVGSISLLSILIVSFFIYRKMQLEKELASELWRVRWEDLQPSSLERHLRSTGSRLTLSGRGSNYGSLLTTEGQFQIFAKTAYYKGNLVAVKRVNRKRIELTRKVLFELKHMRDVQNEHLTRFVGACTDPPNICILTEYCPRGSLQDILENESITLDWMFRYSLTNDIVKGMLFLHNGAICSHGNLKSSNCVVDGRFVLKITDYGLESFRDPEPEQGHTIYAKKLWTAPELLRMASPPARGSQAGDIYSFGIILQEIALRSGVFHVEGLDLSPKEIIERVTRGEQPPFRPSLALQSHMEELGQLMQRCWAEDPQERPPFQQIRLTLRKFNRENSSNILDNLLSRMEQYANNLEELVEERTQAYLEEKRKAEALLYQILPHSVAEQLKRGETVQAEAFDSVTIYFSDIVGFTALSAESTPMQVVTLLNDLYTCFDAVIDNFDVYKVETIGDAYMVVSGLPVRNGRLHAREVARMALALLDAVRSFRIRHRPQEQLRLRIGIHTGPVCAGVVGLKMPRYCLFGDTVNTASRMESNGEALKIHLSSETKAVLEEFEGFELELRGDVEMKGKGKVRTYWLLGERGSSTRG
Procedure: (§1) The effect of rANP on membrane-bound guanylate cyclase and adenylate cyclase activity in various brain-barrier tissues and tissue fractions from rabbit was compared with its activity in cerebrum and cerebellum. Guanylate cyclase was measured as the rate of cyclic GMP formation by modifications of the technique of Waldman et al., supra, incorporated herein by reference. Briefly, tissues were homogenized (10 mg wet weight per milliliter) in 50 mM tris-HCl, pH 8.0, 1 mM EDTA, 1 mM dithiothreitol, and 250 mM sucrose and centrifuged at 100,000g to obtain a P1 pellet. Reaction tubes contained (in 0.3 ml), 50 mM tris, pH 7.6, 6 mM MnCl₂, 0.5 mM 3-isobutyl, 1-methylxanthine (IBMX), 10 mM theophylline, 3 mM GTP, hormone (in 0.03 ml containing 2.5 mM ascorbic acid and 0.1% bovine serum albumin), and 0.06 ml of P1 fraction (40 to 60 ug of protein). The reaction (4 minutes at 30°C) was started by addition of GTP and terminated by addition of 0.3 ml of 150 mM sodium acetate (pH 4.0) and boiling for 3 minutes. Cyclic GMP formed was subsequently measured by radioimmunoassay as described in example 6, infra. Under these conditions, guanylate cyclase activity was linear with time and tissue concentration. Adenylate cyclase activity in P1 fractions was measured according to the method described by Nathanson, et al., Science; 204:843 (1979); Mol. Pharmacol. 18:199 (1980), see Figure 1C . […] Neurosci. […]

[2] = test system: guanylate cyclase; assay: Guanylate cyclase in pia-arachnoid preparation; type: biochemical, rabbit
Procedure: as §1

[3] = test system: guanylate cyclase; assay: Guanylate cyclase in membrane fractions of cerebral cortex; type: biochemical; conditions: rabbit or pig cerebral cortex membrane fractions
Procedure: as §1

[4] = test system: choroid epithelial cells; assay: Intracellular cyclic GMP content of isolated choroid epithelial cells; type: cell-based, rabbit; conditions: 5 minutes incubation; 1 uM rANP; PDE inhibitors theophylline (10 mM) and IBMX (0.5 mM)
Procedure: The effect of rANP on membrane-bound guanylate cyclase and adenylate cyclase activity in various brain-barrier tissues and tissue fractions from rabbit was compared with its activity in cerebrum and cerebellum. Guanylate cyclase was measured as the rate of cyclic GMP formation by modifications of the technique of Waldman et al., supra, incorporated herein by reference. Briefly, tissues were homogenized (10 mg wet weight per milliliter) in 50 mM tris-HCl, pH 8.0, 1 mM EDTA, 1 mM dithiothreitol, and 250 mM sucrose and centrifuged at 100,000g to obtain a P1 pellet. […] Cyclic GMP formed was subsequently measured by radioimmunoassay as described in example 6, infra. […] Adenylate cyclase activity in P1 fractions was measured according to the method described by Nathanson, et al., Science; 204:843 (1979); Mol. Pharmacol. 18:199 (1980), see Figure 1C . […]
Purified secretory epithelial cells were isolated and maintained in tissue culture medium in the absence of any hormones. […] More diffuse staining was found only in epithelium and not in vascular or stromal components of choroid epithelial cells as determined by fluorescein optics. […]
For one experiment, the mean ± range is shown for duplicate determinations, each assayed in triplicate for cyclic GMP content. […] After the cells were incubated for 5 minutes, they were killed and their cyclic GMP content was determined. […]

Ser-Leu-Arg-Arg-atriopeptin III (APIII) [rANP 1-28]
Ka [1]: > 1000 nM | degree of enzyme stimulation [2]: 15% | stimulation of guanylate cyclase activity [3]: no stimulation | increase in cyclic GMP content [4]: more than an eightfold increase
